Test results from patent US9326986B2, “Quinazolinone, quinolone and related analogs as sirtuin modulators” (GLAXOSMITHKLINE LLC, priority 2008, dated 2016).

Biological target: T1, SIRT1 (Homo sapiens, UniProt Q96EB6)
T1 sequence (Q96EB6 1-747): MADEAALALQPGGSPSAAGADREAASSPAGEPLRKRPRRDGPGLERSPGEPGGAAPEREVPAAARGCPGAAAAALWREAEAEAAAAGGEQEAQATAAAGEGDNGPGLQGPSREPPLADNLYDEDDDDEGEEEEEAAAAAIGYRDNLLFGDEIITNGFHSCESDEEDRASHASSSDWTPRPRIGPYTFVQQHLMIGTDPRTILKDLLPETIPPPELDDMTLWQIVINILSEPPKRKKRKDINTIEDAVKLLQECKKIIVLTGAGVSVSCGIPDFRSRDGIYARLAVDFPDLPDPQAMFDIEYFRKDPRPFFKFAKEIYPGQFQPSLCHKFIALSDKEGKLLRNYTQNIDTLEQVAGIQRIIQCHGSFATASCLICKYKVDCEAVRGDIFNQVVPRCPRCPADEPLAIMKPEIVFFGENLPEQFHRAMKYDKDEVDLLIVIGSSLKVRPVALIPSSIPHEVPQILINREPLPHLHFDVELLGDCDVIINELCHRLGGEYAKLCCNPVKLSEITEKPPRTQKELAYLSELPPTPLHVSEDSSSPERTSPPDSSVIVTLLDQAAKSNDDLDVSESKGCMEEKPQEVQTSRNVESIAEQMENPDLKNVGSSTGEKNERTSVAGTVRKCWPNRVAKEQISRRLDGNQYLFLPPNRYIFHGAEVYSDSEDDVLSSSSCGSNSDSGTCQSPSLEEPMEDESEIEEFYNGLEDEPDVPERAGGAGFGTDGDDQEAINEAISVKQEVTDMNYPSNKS
Assay: Mass spectrometry based assay to identify modulators of SIRT1 activity (deacetylation of p53-based acetylated peptide)
Type: biochemical
Settings: 10 nM SIRT1, 0.5 μM peptide substrate, 120 μM βNAD+, 25 minutes at 25° C.; for EC1.5 μM: SIRT1 activation

% Fold Act. (percent maximum fold activation)	EC1.5 μM	Structure (SMILES)
A (Fold activation>200%)	A (EC1.5<1.0 μM)	Cn1c(-c2cccc(C(F)(F)F)c2)nc2c(C(=O)Nc3cccc(OC[C@H](O)CO)n3)cccc2c1=O [Compound 353]
A (Fold activation>200%)	A (EC1.5<1.0 μM)	Cc1ncoc1C(=O)Nc1cccc2c(=O)n(C)c(-c3cccc(C(F)(F)F)c3)nc12 [Compound 230]
A (Fold activation>200%)	B (EC1.5 1-25 μM)	O=C(Nc1cccnc1)c1cccc2c(=O)cc(-c3ccccc3C(F)F)[nH]c12 [Compound 438]
A (Fold activation>200%)	A (EC1.5<1.0 μM)	Cn1c(-c2cccc(C(F)(F)F)c2)nc2c(NC(=O)c3cccc(N4CCOCC4)c3)cccc2c1=O [Compound 330]
B (Fold Activation<200%)	C (EC1.5>25 μM)	Cn1c(-c2ccc(OC(F)(F)F)cc2)nc2c(C(=O)Nc3ccccn3)cccc2c1=O [Compound 211]
A (Fold activation>200%)	B (EC1.5 1-25 μM)	Cn1c(-c2cccc(C(F)(F)F)c2)nc2c(C(=O)Nc3ncc(CN4CCCC4)s3)cccc2c1=O [Compound 358]
A (Fold activation>200%)	A (EC1.5<1.0 μM)	Cn1c(-c2ccccc2OC(F)F)nc2c(NC(=O)c3cnccn3)cccc2c1=O [Compound 312]
A (Fold activation>200%)	A (EC1.5<1.0 μM)	O=C(Nc1cccc2c(=O)cc(-c3cccc(C(F)(F)F)c3)[nH]c12)c1cscn1 [Compound 405]
A (Fold activation>200%)	A (EC1.5<1.0 μM)	O=C(Nc1ccccn1)c1cccc2c(=O)[nH]c(-c3cccc(C(F)(F)F)c3)nc12 [Compound 218]
A (Fold activation>200%)	A (EC1.5<1.0 μM)	Cn1c(-c2cccc(C(F)(F)F)c2)nc2c(C(=O)Nc3cccc(OC[C@H](O)CO)c3)cccc2c1=O [Compound 363]
